Measurements reported in patent publication US8703811B2, “Small molecule inhibitors of Plasmodium falciparum dihydroorotate dehydrogenase” (Genzyme Corporation, priority 2008, dated 2014).
In brackets after ≈: the same amount, converted by molar mass. Like-named read-outs stand apart in the source and are kept apart here.

Columns and labels:
[1] = molecular target: hsDHODH (Homo sapiens (Human), UniProt Q02127); experiment: DCIP assay, hsDHODH; type: biochemical
[2] = test system: Normal Human Dermal Fibroblasts; experiment: Normal Human Dermal Fibroblast Toxicity Screen; type: cell-based
Procedure: (§1) The Normal Human Dermal Fibroblast Toxicity Screen Protocol is designed to determine whether compound mixtures, breakouts or single compounds are toxic to normal human dermal fibroblasts. The screen involves plating the dermal fibroblasts and then exposing them to the compounds for four days, then cell viability is measured using Alamar Blue reagent.
(§2) Harvested Dermal Fibroblast cells were diluted in Growth Media to 0.25 to 0.3×10^5 cells/mL. […] NOTE: One plate, the T=0 plate required that 20-30 wells be seeded and all the other plates had 96 wells seeded. Plates were incubated in 37° C./5% CO2 incubator for 24 hours.
(§3) Alamar Blue solution (25 μL/well) was added to the T=0 plate and the plate was agitated. The plate in 37° C./5% CO2 incubator was incubated for 3 hours, agitated the and the fluorescence was measured. 10% Tween 20 stock (10 μL) was added into rows A-D in column 1 (positive control). DMSO (0.5 μL) was added into column 2 (negative control). Compounds were placed into designated wells for desired testing as follows:
(§4) Plates were mixed on the shaker, then incubated in 37° C./5% CO2 incubator for 96 hours.
(§5) Alamar Blue solution (25 μL/well) was added to the plates containing the compounds, and the plates were agitated. The plates were incubated in 37° C./5% CO2 incubator for 3 hours, agitated and then the fluorescence was measured.

[3] = Solubility measurement; type: physicochemical
From the text: Many standard techniques are known in the art to establish the solubility of a compound in a particular solvent. The following description is one such technique that could be used to determine the solubility: Equilibrium solubility measurements start with the solid form of the compound (crystalline form preferred). The powder is physically mixed with an aqueous buffer (defined pH) until equilibrium is reached. Either centrifugation or filtration can be used to separate the solution from the remaining solid. The amount dissolved in the solution can be determined by any one of many known methods including HPLC or UV/Vis spectroscopic techniques.

[4] = test system: Renal Proximal Tubule Epithelial Cells; experiment: Renal Proximal Tubule Epithelial Cell Toxicity Screen; type: cell-based
How it was run: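 Normal renal epithelial cells seeded at 1.5×10^4 cells/mL, grown 24 h at 37 °C/5% CO2, then exposed to compounds for 96 h; a T=0 plate was read at dosing. Viability by Alamar Blue fluorescence after 4 h, with Tween 20 and DMSO wells as positive and negative controls.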

[5] = Normal Human Dermal Fibroblast Toxicity Screen; type: cell-based; details: human, normal human dermal fibroblasts; four days exposure, Alamar Blue; read-out: Dermal Fibroblast LC50
Procedure: as §1, §2, §3, §4, §5

[6] = molecular target: Cytochrome P450 3A4 (Homo sapiens (Human), UniProt P08684); experiment: Cytochrome P450 inhibition, 3A4; type: in vitro ADME
From the text: (§6) Rapid screening for cytochrome P450 inhibitors is part of the current paradigm for avoiding development of drugs likely to give clinical pharmacokinetic drug-drug interactions and associated toxicities. There are commercially available assays for such screenings. For example, BD Biosciences (http://www.bdbiosciences.com/index.shtml) provides a technical bulletin describing a detailed, step-by-step procedure for the performance of the high throughput cytochrome P450 inhibition testing method.

[7] = molecular target: Cytochrome P450 2C9 (Homo sapiens (Human), UniProt P11712); experiment: Cytochrome P450 inhibition, 2C9; type: in vitro ADME
From the text: as §6

[8] = molecular target: Cytochrome P450 2C19 (Homo sapiens (Human), UniProt P33261); experiment: Cytochrome P450 inhibition, 2C19; type: in vitro ADME
From the text: as §6

[9] = molecular target: Cytochrome P450 2D6 (Homo sapiens (Human), UniProt P10635); experiment: Cytochrome P450 inhibition, 2D6; type: in vitro ADME
From the text: as §6

[10] = Hepatic clearance, rat; type: in vitro ADME
From the text: Clearance of drug by the liver will depend on the rate of delivery of drug to the liver (the hepatic blood flow) and on the efficiency of removal of drug which is presented to it (the extraction ratio). The hepatic clearance of compounds can be determined by standard methods known in the art. Such methods are described in, for example, Naritomi, Y; Terashita, S; Kagayama, A; Sugiyama, Y. “Utility of Hepatocytes in Predicting Drug Metabolism: Comparison of Hepatic Intrinsic Clearance in Rats and Humans in Vivo and in Vitro.” 2003, 31 (5): pages 580-588.

[11] = molecular target: Cytochrome P450 1A2 (Homo sapiens (Human), UniProt P05177); type: in vitro ADME
From the text: as §6

[12] = Table 2b, read-out: Hu (human DHODH) IC50
[13] = Table 3, DCIP assay, 20 nM hsDHODH, read-out: hsDHODH IC50
[14] = aqueous buffer, thermodynamic from solid, read-out: Solubility

hsDHODH, sequence (Q02127 29-395 limits assumed): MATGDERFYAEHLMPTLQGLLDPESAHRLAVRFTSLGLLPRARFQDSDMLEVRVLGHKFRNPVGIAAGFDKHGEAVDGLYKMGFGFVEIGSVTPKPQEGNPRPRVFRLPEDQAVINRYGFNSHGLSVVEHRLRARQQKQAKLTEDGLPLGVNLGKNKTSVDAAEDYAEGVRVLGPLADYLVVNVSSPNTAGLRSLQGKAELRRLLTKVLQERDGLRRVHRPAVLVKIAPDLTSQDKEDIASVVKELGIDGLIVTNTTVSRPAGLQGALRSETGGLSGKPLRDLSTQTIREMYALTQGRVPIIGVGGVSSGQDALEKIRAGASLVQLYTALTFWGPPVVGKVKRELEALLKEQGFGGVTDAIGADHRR
Cytochrome P450 2C9, sequence (P11712 whole entry): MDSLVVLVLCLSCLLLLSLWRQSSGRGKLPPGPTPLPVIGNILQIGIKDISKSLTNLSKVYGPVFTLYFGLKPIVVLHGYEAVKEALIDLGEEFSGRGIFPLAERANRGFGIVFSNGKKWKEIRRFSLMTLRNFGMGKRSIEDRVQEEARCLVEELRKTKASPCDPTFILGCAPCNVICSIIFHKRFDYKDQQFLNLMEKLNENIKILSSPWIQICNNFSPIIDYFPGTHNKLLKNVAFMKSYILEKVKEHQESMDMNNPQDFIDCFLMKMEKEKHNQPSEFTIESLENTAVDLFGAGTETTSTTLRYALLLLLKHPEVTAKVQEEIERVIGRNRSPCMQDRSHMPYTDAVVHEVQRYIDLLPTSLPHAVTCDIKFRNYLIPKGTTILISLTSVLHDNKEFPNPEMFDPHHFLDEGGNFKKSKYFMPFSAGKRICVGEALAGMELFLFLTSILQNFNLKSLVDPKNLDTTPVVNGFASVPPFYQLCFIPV
Cytochrome P450 3A4, sequence (P08684 whole entry): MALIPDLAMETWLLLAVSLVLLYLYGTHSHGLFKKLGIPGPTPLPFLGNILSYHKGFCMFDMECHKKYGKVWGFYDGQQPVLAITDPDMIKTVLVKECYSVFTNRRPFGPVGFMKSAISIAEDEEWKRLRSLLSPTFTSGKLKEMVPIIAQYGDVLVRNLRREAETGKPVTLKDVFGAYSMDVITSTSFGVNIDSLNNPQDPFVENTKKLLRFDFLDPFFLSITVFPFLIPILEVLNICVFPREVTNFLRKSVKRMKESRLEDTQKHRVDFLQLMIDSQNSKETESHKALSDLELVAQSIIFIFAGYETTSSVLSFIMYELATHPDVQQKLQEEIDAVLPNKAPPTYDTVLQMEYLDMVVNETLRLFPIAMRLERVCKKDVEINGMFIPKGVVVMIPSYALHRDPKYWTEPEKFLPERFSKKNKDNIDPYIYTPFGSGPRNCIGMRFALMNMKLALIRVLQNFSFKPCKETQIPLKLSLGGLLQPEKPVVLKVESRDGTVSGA
Cytochrome P450 1A2, sequence (P05177 whole entry): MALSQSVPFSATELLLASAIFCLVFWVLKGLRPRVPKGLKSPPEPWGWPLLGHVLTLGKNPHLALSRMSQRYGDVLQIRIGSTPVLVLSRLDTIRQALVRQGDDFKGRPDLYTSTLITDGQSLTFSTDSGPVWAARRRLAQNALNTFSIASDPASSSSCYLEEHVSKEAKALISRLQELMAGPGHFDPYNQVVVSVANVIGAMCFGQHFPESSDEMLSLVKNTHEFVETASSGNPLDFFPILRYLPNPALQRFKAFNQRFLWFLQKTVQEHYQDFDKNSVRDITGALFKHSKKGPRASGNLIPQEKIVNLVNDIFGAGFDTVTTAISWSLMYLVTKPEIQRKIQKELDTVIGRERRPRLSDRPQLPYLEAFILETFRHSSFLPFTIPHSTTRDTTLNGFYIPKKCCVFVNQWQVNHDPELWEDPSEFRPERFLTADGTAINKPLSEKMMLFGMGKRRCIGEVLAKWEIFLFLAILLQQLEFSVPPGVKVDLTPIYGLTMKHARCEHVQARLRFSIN
Cytochrome P450 2C19, sequence (P33261 whole entry): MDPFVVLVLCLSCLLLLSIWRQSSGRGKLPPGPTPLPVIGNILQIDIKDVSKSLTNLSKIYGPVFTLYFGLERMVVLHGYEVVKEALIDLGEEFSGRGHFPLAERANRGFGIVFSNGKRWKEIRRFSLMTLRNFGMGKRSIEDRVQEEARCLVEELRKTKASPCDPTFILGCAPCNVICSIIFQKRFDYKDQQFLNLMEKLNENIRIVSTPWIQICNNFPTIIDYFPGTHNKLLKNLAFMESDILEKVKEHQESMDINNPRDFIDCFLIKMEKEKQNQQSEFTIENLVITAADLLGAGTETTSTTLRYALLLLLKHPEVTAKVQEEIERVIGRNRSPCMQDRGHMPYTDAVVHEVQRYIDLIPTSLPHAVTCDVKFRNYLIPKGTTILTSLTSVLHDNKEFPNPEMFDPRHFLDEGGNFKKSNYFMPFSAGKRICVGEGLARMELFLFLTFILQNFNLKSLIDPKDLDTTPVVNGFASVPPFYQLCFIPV
Cytochrome P450 2D6, sequence (P10635 whole entry): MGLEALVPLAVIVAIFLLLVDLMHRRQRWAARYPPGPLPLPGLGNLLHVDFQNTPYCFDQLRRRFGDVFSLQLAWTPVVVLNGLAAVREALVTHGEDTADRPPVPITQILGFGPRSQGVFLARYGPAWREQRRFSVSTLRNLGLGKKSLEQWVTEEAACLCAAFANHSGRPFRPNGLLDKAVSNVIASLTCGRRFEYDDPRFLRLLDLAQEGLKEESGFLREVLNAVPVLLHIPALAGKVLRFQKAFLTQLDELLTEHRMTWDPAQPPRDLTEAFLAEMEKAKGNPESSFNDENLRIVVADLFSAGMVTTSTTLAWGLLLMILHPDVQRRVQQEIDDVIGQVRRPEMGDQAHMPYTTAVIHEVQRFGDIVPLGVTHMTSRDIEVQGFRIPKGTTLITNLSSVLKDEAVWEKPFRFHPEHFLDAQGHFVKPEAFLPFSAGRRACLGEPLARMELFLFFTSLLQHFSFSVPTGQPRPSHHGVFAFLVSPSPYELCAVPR

Row | Compound | IC50 [1, 12] [µM] | IC50 [1, 13] [µM] | CC50 ([2]; four days exposure, Alamar Blue, read-out: Dermal Fibroblast LC50) [µM] | solubility [3] [µg/mL] | CC50 ([4]; 4 days exposure, Alamar Blue, read-out: Kidney Epithelial LC50) [µM] | IC50 ([1]; DCIP assay, 200 μM L-DHO, 18 μM CoQD, 100 μM DCIP, 20 nM enzyme, read-out: hsDHODH IC50) [µM] | CC50 at 96 h [5] [µM] | solubility [3, 14] [µg/mL] | Cytochrome P450 Inhibition, 3A4 [6] [in 3A4 μM] | Cytochrome P450 Inhibition, 2C9 [7] [in 2C9 μM] | Cytochrome P450 Inhibition, 2C19 [8] [in 2C19 μM] | Cytochrome P450 Inhibition, 2D6 [9] [in 2D6 μM] | microsomal CLint [10] [µL/min/mg] | Cytochrome P450 Inhibition, 1A2 [11] [in 1A2 μM] | cytotoxicity in dermal fibroblasts [2] | cytotoxicity in kidney epithelial cells [4]
1 | 5-(1H-indol-1-yl)-N-propylthiophene-2-carboxamide [Compound 7] | > 30 | > 30 | 50 | 1 | 50 |  |  |  |  |  |  |  |  |  |  | 
2 | CCCNC(=O)c1ccc(-n2c(C)cc3ccccc32)s1 [Compound 1, 5-(2-methyl-1H-indol-1-yl)-N-propylthiophene-2-carboxamide] | > 30 | > 30 |  |  |  | > 30 | > 62 | 0.9 (≈ 3.02 µM) |  |  |  |  |  |  |  | 
3 | CCCNC(=O)c1ccc(-n2cnc3ccccc32)s1 [Compound 11, 5-(1H-benzo[d]imidazol-1-yl)-N-propylthiophene-2-carboxamide] | > 30 | > 30 |  |  |  |  | > 62 | > 30 | >5.0 | >5.0 | >5.0 | >5.0 | > 119 | >5.0 |  | 
4 | CCCNC(=O)c1ccc(-n2c(C)nc3ccccc32)s1 [Compound 12, 5-(2-methyl-1H-benzo[d]imidazol-1-yl)-N-propylthiophene-2-carboxamide] | > 30 | > 30 |  |  |  |  | > 62 | > 30 | >5.0 | >5.0 | >5.0 | >5.0 | 102 | >5.0 | No adverse cytotoxicity | No adverse cytotoxicity
